The source of these data is patent publication US7795310B2, “Methods and reagents for the treatment of metabolic disorders” (CombinatoRx, Inc., priority 2004, dated 2010).

Counter-ions that a name gives are not always drawn. Like-named read-outs stand apart in the source and are kept apart here.

Test [1] concerns 3T3-L1 adipocytes. The experiment in a line: Screening assay: insulin-stimulated 14C-glucose uptake by adipocytes (Example 3; F, sF, S/N). Format: cell-based, mouse. As to the method:
These assays were conducted as follows.
(§1) Complete media, also referred to as “Prees” media, was prepared as follows. Dulbecco's Modified Eagle's Medium (DMEM) was supplemented with L-glutamine, penicillin-G and streptomycin (pen/strep), and heat-inactivated fetal bovine serum (FBS) (heat inactivated at […] for 30 minutes). Because serum can affect the growth, adherence, and differentiation of cells, any new lot of serum was first tested prior to use. Media was equilibrated in the incubator (5% CO2) until the pH was within the proper range (˜7), as indicated by the red/orange color of the indicator dye. If the media became pink (indicating a high pH), we discarded the media as basic conditions can affect cells and denature the insulin used in the differentiation medium-1 (DM1) and the differentiation medium-2 (DM2).
Differentiation media-2 (DM2) was prepared by supplementing DMEM with 10% FBS, L-glutamine, pen/strep, and insulin (120 nM).
(§2) Cell culture plates were gelatinized as follows. Gelatin (1% w/v in distilled water) was autoclaved and stored at room temperature. The bottom of each cell culture well was covered uniformly in the gelatin solution, ensuring that no bubbles were formed. This solution was removed leaving behind a thin film of gelatin. These plates were left to dry under the tissue culture hood. Plates were next washed with PBS, after which a 0.5% glutaric dialdehyde solution (glutaraldehyde in distilled water) was added to the cell culture wells. After ten minutes, wells were washed twice with DMEM containing pen-strep. Each washing step should last for approximately five minutes.
(§3) 3T3-L1 pre-adipocyte cells were split approximately every 2-3 days or upon reaching a confluence of approximately 60%. Overconfluency may affect the ability of these cells to differentiate into adipocytes.
(§4) D-(+)-glucose (“cold” glucose, not radiolabeled) was added to DPBS mix to a final concentration of 10 mM.
(§5) Lysis buffer, a mixture of a base (e.g., sodium hydroxide at a final concentration of 0.5N) and a detergent (e.g., sodium dodecyl sulphate (SDS) diluted to a final concentration of 0.1% w/v) was freshly prepared each time (within one to two hours of use). Prior to use, lysis buffer was warmed up to a temperature exceeding that of room temperature for a period of approximately 30 minutes to avoid precipitation of the buffer.
(§6) Pre-adipocyte 3T3-L1 cells were plated at a density of approximately 5000 cells/well (in black NUNC 96 well plate). These cells were differentiated into adipocytes in two separate steps. Initially, cells were cultured in differentiation medium-1 (DM1) (day 1 of adipocyte differentation) for a period of two to three days. DM1 prevents proliferation and induces the expression of adipocyte-specific genes. Cells were next cultured in differentiation medium-2 (DM2) for 3 to 4 days, after which the culture media was replaced by fresh DM2. The glucose uptake assay was performed at day 9-15 of differentiation.
Two days prior to the experiment (at day 7-13 of differentiation), DM2 was removed and replaced with fresh Prees media. Candidate compounds were added at this time, allowing an incubation period of approximately 48 hours. On the day of the experiment, cells (now at day 9 to 15 of differentiation) were serum starved for three hours in DPBS, magnesium sulfate (0.8 mM), and Hepes (10 mM) at pH ˜7. After this incubation period, fresh DPBS containing insulin (10 nM) was added to the adipocytes. Fresh DPBS without any insulin were placed on cells that served as a negative control. Following an incubation period of 25 minutes at 37° C., radioactive glucose (labeled with ^14C, at a final concentration of 0.04 mM, ˜0.26 μCi ^14C-glucose in each well) was added to the media for a period of 15 minutes at room temperature. Media was next removed and cells were washed thoroughly and lysed. Upon lysis, cells form a small, cloudy mass, detached from the well bottom.

The test system of a further test is human skeletal myoblasts. The experiment in a line: Glycogen synthesis from radiolabeled glucose in skeletal myoblasts (Example 3; Xlsyz). It is filed as cell-based. The method, then:
In another set of experiments, human skeletal myoblasts obtained by the conditional immortalization of cells derived from a non-diabetic subject, were used to screen the effect of a multitude of compounds on glycogen synthesis. For each compound, two doses were tested in triplicate. The vehicle was used as a negative control and insulin was used as a positive control. Prior to treatment, cells were serum-starved for 12 to 18 hours in Ham's F10 medium. Cells were next incubated either with the test compounds or control for a period of two hours in serum-free media containing radiolabeled glucose, after which, glycogen synthesis was measured.

Test [2] deals with 3T3-L1 adipocytes. The experiment in a line: Insulin-stimulated 14C-glucose uptake in differentiated adipocytes (Example 1). Format: cell-based, mouse. The method, then: Differentiated mouse adipocytes were employed to identify combinations of agents that have the ability to increase glucose uptake upon insulin stimulation, as detected by scintillation counting of radiolabelled glucose (using, for example, the Perkin Elmer 1450 Microbeta JET reader). These assays were conducted as follows.
as §1
Differentiation media-1 (DM1) was prepared by supplementing DMEM with 10% FBS, L-glutamine, pen/strep, IBMX (375 μM), insulin (120 nM), and dexamethasone (188 nM). Differentiation media-2 (DM2) was prepared by supplementing DMEM with 10% FBS, L-glutamine, pen/strep, and insulin (120 nM).
as §2, §3, §4, §5, §6
Two days prior to the experiment (at day 7-13 of differentiation), DM2 was removed and replaced with fresh Prees media. Candidate compounds were added at this time, allowing an incubation period of approximately 48 hours. On the day of the experiment, cells (now at day 9 to 15 of differentiation) were serum starved for three hours in DPBS, magnesium sulfate (0.8 mM), and Hepes (10 mM) at pH ˜7. After this incubation period, fresh DPBS containing insulin (10 nM) was added to the adipocytes. Fresh DPBS without any insulin were placed on cells that served as a negative control. […]

[3] abbreviates: insulin-stimulated 14C-glucose uptake, 3T3-L1 adipocytes, about 48 h with compound, 10 nM insulin, test concentration per compound in column CRx uM.
Setting [4] is: glycogen synthesis, human skeletal myoblasts, 2 h, dose (H).
Setting [5] is: glycogen synthesis, human skeletal myoblasts, 2 h, dose (L), concentration per compound uM(L).

Turning to `CC(=O)Nc1ccc(O)cc1` [Acetaminophen], the “CRx F” value in the test on 3T3-L1 adipocytes [1] (setting [3]) was found to be 1.021.
As to `CC(=O)Nc1nnc(S(N)(=O)=O)s1` [Acetazolamide], in the test on 3T3-L1 adipocytes [1] (setting [3]), the “CRx F” value was determined as 0.8994.
In the case of `CC(=O)O[C@H]1C[C@H](O[C@H]2[C@@H](O)C[C@H](O[C@H]3[C@@H](O)C[C@H](O[C@H]4CC[C@@]5(C)[C@H](CC[C@@H]6[C@@H]5CC[C@]5(C)[C@@H](C7=CC(=O)OC7)CC[C@]65O)C4)O[C@@H]3C)O[C@@H]2C)O[C@H](C)[C@H]1O` [Acetyldigitoxin], the “Xlsyz F(H)” value in the test on human skeletal myoblasts (setting [4]) stood at 1.2593. For the same compound, the “Xlsyz F(L)” value with human skeletal myoblasts (setting [5]) is reported as 1.3016. Besides, the “CRx F” value with 3T3-L1 adipocytes [1] (setting [3]) amounted to 0.8077.
Regarding `Cl.N` [Ammonium Chloride], in the test on human skeletal myoblasts (setting [4]), the “Xlsyz F(H)” value worked out at 1.2105. Further, the “Xlsyz F(L)” value in the test on human skeletal myoblasts (setting [5]) turned out to be 0.8482. For the same compound, the “CRx F” value in the test with 3T3-L1 adipocytes [1] is given as 0.8881.
For the compound `CCCCNCC(O)c1ccc(O)cc1` (stereo not drawn) [Bamethan], the “Xlsyz F(H)” value in the test with human skeletal myoblasts (setting [4]) turned out to be 1.3846. Moreover, the “Xlsyz F(L)” value in the test with human skeletal myoblasts (setting [5]) is 0.9106. Besides, the “CRx F” value with 3T3-L1 adipocytes [1] (setting [3]) amounted to 1.1895.
As for `CC(C)(Oc1ccc(CCNC(=O)c2ccc(Cl)cc2)cc1)C(=O)O` [Bezafibrate], the “average fold increase in insulin-stimulated glucose uptake compared to vehicle treated control” value came to 0.94 fold in the test on 3T3-L1 adipocytes [2] (Bezafibrate 9 μM, Cinnamic acid 0 μM, average of three biological replicates); 1.16 fold with 3T3-L1 adipocytes [2] (Bezafibrate 9 μM, Diflunisal 0 μM, average of four biological replicates); 1.21 fold with 3T3-L1 adipocytes [2] (Bezafibrate 18 μM, Cinnamic acid 0 μM, average of three biological replicates); 1.37 fold with 3T3-L1 adipocytes [2] (Bezafibrate 18 μM, Diflunisal 0 μM, average of four biological replicates); 1.15 fold in the test with 3T3-L1 adipocytes [2] (Bezafibrate 36 μM, Cinnamic acid 0 μM, average of three biological replicates); 1.57 fold with 3T3-L1 adipocytes [2] (Bezafibrate 36 μM, Diflunisal 0 μM, average of four biological replicates).
As for `[Ca+2].[Cl-].[Cl-]` [Calcium Chloride], in the test with human skeletal myoblasts, the “Xlsyz F(H)” value is on record as 1.2121 and the “Xlsyz F(L)” value came to 1.0714. Further, the “CRx F” value in the test on 3T3-L1 adipocytes [1] is on record as 0.7358.
On to `C[C@H](CS)C(=O)N1CCC[C@H]1C(=O)O` [Captopril], for which the “CRx F” value in the test on 3T3-L1 adipocytes [1] (setting [3]) was 0.662.
The same measure, in the same setting: the result for `NC(=O)N1c2ccccc2C=Cc2ccccc21` [Carbamazepine] reads 0.7464.
On to `O=C(O)C=Cc1ccccc1` [Cinnamic acid, 3-phenyl-2-propenoic acid], for which the “average fold increase in insulin-stimulated glucose uptake compared to vehicle treated control” value with 3T3-L1 adipocytes [2] (Cinnamic acid 3 μM, Bezafibrate 0 μM, average of three biological replicates) was 0.98 fold; in the test with 3T3-L1 adipocytes [2] (Cinnamic acid 6 μM, Bezafibrate 0 μM, average of three biological replicates), 1.03 fold; with 3T3-L1 adipocytes [2] (Cinnamic acid 12 μM, Bezafibrate 0 μM, average of three biological replicates), 1.10 fold.
On to `[Cl][Cu][Cl]` [Cupric Chloride], for which the “Xlsyz F(H)” value with human skeletal myoblasts (setting [4]) was found to be 1.25. Further, in the test with human skeletal myoblasts (setting [5]), the “Xlsyz F(L)” value amounted to 1.0643. For the same compound, the “CRx F” value in the test on 3T3-L1 adipocytes [1] (setting [3]) was determined as 1.3661.
Regarding `O=C(O)Cc1ccccc1Nc1c(Cl)cccc1Cl` [Diclofenac Sodium], the “CRx F” value in the test with 3T3-L1 adipocytes [1] (setting [3]) is on record as 1.3966.
For the compound `Cc1onc(-c2c(Cl)cccc2Cl)c1C(=O)N[C@@H]1C(=O)N2[C@@H]1SC(C)(C)[C@@H]2C(=O)O` [Dicloxacillin Sodium], the “CRx F” value with 3T3-L1 adipocytes [1] (setting [3]) amounted to 1.0042.
On the same count and under the same terms, the result for `C[C@H]1O[C@@H](O[C@H]2[C@@H](O)C[C@H](O[C@H]3[C@@H](O)C[C@H](O[C@H]4CC[C@@]5(C)[C@H](CC[C@@H]6[C@@H]5CC[C@]5(C)[C@@H](C7=CC(=O)OC7)CC[C@]65O)C4)O[C@@H]3C)O[C@@H]2C)C[C@H](O)[C@@H]1O` [Digitoxin] reads 0.8801.
Consider `C[C@H](N[C@@H](CCc1ccccc1)C(=O)O)C(=O)N1CCC[C@H]1C(=O)O` [Enalaprilat], for which the “Xlsyz F(H)” value in the test on human skeletal myoblasts (setting [4]) was 0.8333. Besides, the “Xlsyz F(L)” value in the test with human skeletal myoblasts (setting [5]) came to 1.2739. Also, the “CRx F” value with 3T3-L1 adipocytes [1] (setting [3]) amounted to 0.992.
Turning to `COc1cc([C@@H]2c3cc4c(cc3[C@@H](O[C@@H]3O[C@@H]5CO[C@@H](C)O[C@H]5[C@H](O)[C@H]3O)[C@H]3COC(=O)[C@H]23)OCO4)cc(OC)c1O` [Etoposide], the “CRx F” value in the test on 3T3-L1 adipocytes [1] (setting [3]) was 1.037.
On to `CCC(Cc1c(I)cc(I)c(O)c1I)C(=O)O` (stereo not drawn) [Iohenoxic Acid], for which the “Xlsyz F(H)” value with human skeletal myoblasts (setting [4]) is reported as 1.2119. Besides, the “Xlsyz F(L)” value with human skeletal myoblasts (setting [5]) worked out at 1.0504. Besides, in the test on 3T3-L1 adipocytes [1] (setting [3]), the “CRx F” value is 1.0641.
As for `CCN(CC)C(=S)[S-].CCN(CC)C(=S)[S-].[Pb+2]` [LEAD DIETHYLDITHIOCARBAMATE], in the test with human skeletal myoblasts (setting [4]), the “Xlsyz F(H)” value worked out at 1.2527. Also, in the test with human skeletal myoblasts (setting [5]), the “Xlsyz F(L)” value came to 1.064. Besides, in the test with 3T3-L1 adipocytes [1] (setting [3]), the “CRx F” value came out at 1.524.
Consider `CCN(CC)CC#CCOC(=O)C(O)(c1ccccc1)C1CCCCC1` (stereo not drawn) [Oxybutynin Chloride], for which, in the test with 3T3-L1 adipocytes [1] (setting [3]), the “CRx F” value was determined as 1.0483.
On the same count and under the same terms, the result for `O=C1NC(=O)C(c2ccccc2)(c2ccccc2)N1` [PHENYTOIN] reads 1.1755; that for `CCCCC1C(=O)N(c2ccccc2)N(c2ccccc2)C1=O` [Phenylbutazone], 1.2098.
Consider `CCN(CC)CCCC(C)Nc1c2ccc(Cl)cc2nc2ccc(OC)cc12` (stereo not drawn) [QUINACRINE], for which, in the test with 3T3-L1 adipocytes [1] (setting [3]), the “CRx F” value stood at 1.0058.
Take `Cc1cc(NS(=O)(=O)c2ccc(N)cc2)nc(C)n1` [Sulfasomidine]: the “Xlsyz F(H)” value with human skeletal myoblasts (setting [4]) is recorded as 1.3077. For the same compound, in the test on human skeletal myoblasts (setting [5]), the “Xlsyz F(L)” value is on record as 1.0165. Further, the “CRx F” value in the test with 3T3-L1 adipocytes [1] (setting [3]) amounted to 1.1803.
For `CC(C)(C)NCC(O)c1cc(O)cc(O)c1` (stereo not drawn) [Terbutaline Sulfate], the “CRx F” value in the test on 3T3-L1 adipocytes [1] (setting [3]) worked out at 1.2758.
Still for that read-out and setting: the result for `CCS(=O)(=O)CCn1c([N+](=O)[O-])cnc1C` [Tinidazole] reads 1.0177; that for `c1ccc(CC2=NCCN2)cc1` [Tolazoline Hydrochloride], 0.967.
Inulin: in the test on human skeletal myoblasts (setting [4]), the “Xlsyz F(H)” value was found to be 1.0089. In addition, the “Xlsyz F(L)” value in the test with human skeletal myoblasts (setting [5]) was 1.3377. Also, in the test with 3T3-L1 adipocytes [1] (setting [3]), the “CRx F” value is 1.0249.
In the case of Invertase, the “Xlsyz F(H)” value in the test on human skeletal myoblasts (setting [4]) came to 0.8561. In addition, in the test on human skeletal myoblasts (setting [5]), the “Xlsyz F(L)” value was 1.3974. Also, the “CRx F” value in the test with 3T3-L1 adipocytes [1] (setting [3]) came out at 1.2175.
For Metaproterenol Hemisulfate Salt, in that order: 1.1261, 1.4052 and 1.7249.
